Target: recombinant 17β-HSD13 protein (Homo sapiens (Human), UniProt Q7Z5P4)
Assay: 17β-HSD13 biochemical assay (NAD+/NADH Glo chemiluminescence)
Conditions: 17β-HSD13 50 nM, NAD+ 10 mM, β-estradiol 20 μM, 2 hours room temperature
Protocol: 17β-HSD13 biochemical assays are generically described in patents WO 2022/020730, WO 2021/003295, and WO 2023/023310. More specifically, recombinant 17β-HSD13 protein was assayed in a buffer containing 200 mM Tris pH 7.5, 0.01% Triton X-100, and 0.02% BSA into a 384-well assay plate. Compounds were incubated with 17β-HSD13 (final 50 nM) and NAD+ (final 10 mM) at room temperature for 1 h prior to substrate addition. The assay reaction was then initiated by addition of β-estradiol (final 20 μM), and the reaction mixture was incubated for 2 hours at room temperature. Product formation was detected with chemiluminescence by adding equal volume of NAD+/NADH Glo reagent (Promega, #G9062) and read on a PHERAstar microplate reader (BMG LABTECH). IC50 values were determined with GraphPad Prism®, where log-transformed concentration values and the inhibition data were fitted to a four-parameter logistic equation. Y=Bottom+(Top−Bottom)/(1+10^((Log IC50−X)*HillSlope)). The original, % control, or % inhibition data are represented by Y along with their minimal (Bottom) and maximal (Top) values. The inhibitor concentration is represented by X, IC50 is the concentration at 50% maximal value, and Hill Slope is the slope factor.

Chain of recombinant 17β-HSD13 protein (Q7Z5P4 20-300): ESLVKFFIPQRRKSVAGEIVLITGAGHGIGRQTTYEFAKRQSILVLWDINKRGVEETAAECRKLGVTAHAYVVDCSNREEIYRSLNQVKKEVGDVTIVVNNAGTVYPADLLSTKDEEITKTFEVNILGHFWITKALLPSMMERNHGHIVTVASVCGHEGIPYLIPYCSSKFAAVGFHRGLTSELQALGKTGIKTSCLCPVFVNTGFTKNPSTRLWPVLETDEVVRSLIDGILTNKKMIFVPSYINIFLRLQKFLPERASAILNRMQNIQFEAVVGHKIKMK

## C[C@@H](COCC(=O)O)N1C(=O)N(Cc2nnc(-c3ccc(F)c(O)c3F)s2)C2(CC2)C1=O [Compound I-49]
  IC50: 426 nM

## O=C1N(Cc2ccc(F)cc2F)C(=O)C2(CC2)N1Cc1nnc(-c2ccc(F)c(O)c2Cl)s1 [Compound I-33, 4-((5-(2-chloro-4-fluoro-3-hydroxyphenyl)-1,3,4-thiadiazol-2-yl)methyl)-6-(2,4-difluorobenzyl)-4,6-diazaspiro[2.4]heptane-5,7-dione]
  IC50: 8.83 nM

## O=C1NC(=O)C2(CC2)N1Cc1nnc(-c2ccc(F)c(O)c2F)s1 [Compound I-27, 4-((5-(2,4-difluoro-3-hydroxyphenyl)-1,3,4-thiadiazol-2-yl)methyl)-4,6-diazaspiro[2.4]heptane-5,7-dione]
  IC50: 355 nM

## O=C1N(CC(F)(F)F)C(=O)C2(CC2)N1Cc1nnc(-c2ccc(Cl)c(O)c2F)s1 [Compound I-24, 4-((5-(4-chloro-2-fluoro-3-hydroxyphenyl)-1,3,4-thiadiazol-2-yl)methyl)-6-(2,2,2-trifluoroethyl)-4,6-diazaspiro[2.4]heptane-5,7-dione]
  IC50: 71.4 nM

## O=C1N([C@@H](c2ccccc2)C(F)(F)F)C(=O)C2(CC2)N1Cc1nnc(-c2ccc(F)c(O)n2)s1 [Compound I-88, (S)-4-((5-(5-fluoro-6-hydroxypyridin-2-yl)-1,3,4-thiadiazol-2-yl)methyl)-6-(2,2,2-trifluoro-1-phenylethyl)-4,6-diazaspiro[2.4]heptane-5,7-dione]
  IC50: 29.1 nM

## O=C1N(CC(F)F)C(=O)C2(CC2)N1Cc1nnc(-c2ccc(F)c(O)c2F)s1 [Compound I-92, 4-((5-(2,4-difluoro-3-hydroxyphenyl)-1,3,4-thiadiazol-2-yl)methyl)-6-(2,2-difluoroethyl)-4,6-diazaspiro[2.4]heptane-5,7-dione]
  IC50: 14.3 nM

## O=C1N(Cc2nnc(-c3ccc(F)c(O)n3)s2)C2(CC2)C(=O)N1C1(c2ccccc2)CC1 [Compound I-104, 4-((5-(5-fluoro-6-hydroxypyridin-2-yl)-1,3,4-thiadiazol-2-yl)methyl)-6-(1-phenylcyclopropyl)-4,6-diazaspiro[2.4]heptane-5,7-dione]
  IC50: 176 nM

## O=C1N(Cc2ccccc2)C(=O)C2(CC2)N1Cc1nnc(-c2nc(C(F)(F)F)c(F)c(O)c2F)s1 [Compound I-59, 6-benzyl-4-((5-(3,5-difluoro-4-hydroxy-6-(trifluoromethyl)pyridin-2-yl)-1,3,4-thiadiazol-2-yl)methyl)-4,6-diazaspiro[2.4]heptane-5,7-dione]
  IC50: 161 nM

## O=C1N(Cc2ccccc2)C(=O)C2(CC2)N1Cc1nnc(-c2ccc(F)c(O)n2)s1 [Compound I-74, 6-benzyl-4-((5-(5-fluoro-6-hydroxypyridin-2-yl)-1,3,4-thiadiazol-2-yl)methyl)-4,6-diazaspiro[2.4]heptane-5,7-dione]
  IC50: 147 nM

## O=C1N(CC(F)(F)F)C(=O)C2(CC2)N1Cc1nnc(-c2nc(C(F)(F)F)c(F)c(O)c2F)s1 [Compound I-58, 4-((5-(3,5-difluoro-4-hydroxy-6-(trifluoromethyl)pyridin-2-yl)-1,3,4-thiadiazol-2-yl)methyl)-6-(2,2,2-trifluoroethyl)-4,6-diazaspiro[2.4]heptane-5,7-dione]
  IC50: 293 nM

## O=C1N(CCC(F)(F)F)C(=O)C2(CC2)N1Cc1nnc(-c2ccc(F)c(O)c2F)s1 [Compound I-29, 4-((5-(2,4-difluoro-3-hydroxyphenyl)-1,3,4-thiadiazol-2-yl)methyl)-6-(3,3,3-trifluoropropyl)-4,6-diazaspiro[2.4]heptane-5,7-dione]
  IC50: 18.6 nM

## CCN1C(=O)N(Cc2nnc(-c3ccc(Cl)c(O)c3F)s2)C2(CC2)C1=O [Compound I-23, 4-[[5-(4-chloro-2-fluoro-3-hydroxy-phenyl)-1,3,4-thiadiazol-2-yl]methyl]-6-ethyl-4,6-diazaspiro[2.4]heptane-5,7-dione]
  IC50: 78.8 nM
